Laboratory results published in patent publication US8470844B2, “Imidazoacridinone derivative compounds and methods for their use” (Technion Research & Development Foundation Limited, priority 2008, dated 2013).
Where a chain is given by its changes, count along the chain named.

Key:
mutant T482 ABCG2 = target: T1, mutant T482 ABCG2 (Homo sapiens, UniProt Q9UNQ0, R482T); assay: Flow cytometric accumulation in HEK293 transfectants, mutant T482 ABCG2; conditions: HEK293 mutant T482 ABCG2, 0.1 μM TMR, ±5 μM FTC
T1 sequence (Q9UNQ0 1-655 R482T): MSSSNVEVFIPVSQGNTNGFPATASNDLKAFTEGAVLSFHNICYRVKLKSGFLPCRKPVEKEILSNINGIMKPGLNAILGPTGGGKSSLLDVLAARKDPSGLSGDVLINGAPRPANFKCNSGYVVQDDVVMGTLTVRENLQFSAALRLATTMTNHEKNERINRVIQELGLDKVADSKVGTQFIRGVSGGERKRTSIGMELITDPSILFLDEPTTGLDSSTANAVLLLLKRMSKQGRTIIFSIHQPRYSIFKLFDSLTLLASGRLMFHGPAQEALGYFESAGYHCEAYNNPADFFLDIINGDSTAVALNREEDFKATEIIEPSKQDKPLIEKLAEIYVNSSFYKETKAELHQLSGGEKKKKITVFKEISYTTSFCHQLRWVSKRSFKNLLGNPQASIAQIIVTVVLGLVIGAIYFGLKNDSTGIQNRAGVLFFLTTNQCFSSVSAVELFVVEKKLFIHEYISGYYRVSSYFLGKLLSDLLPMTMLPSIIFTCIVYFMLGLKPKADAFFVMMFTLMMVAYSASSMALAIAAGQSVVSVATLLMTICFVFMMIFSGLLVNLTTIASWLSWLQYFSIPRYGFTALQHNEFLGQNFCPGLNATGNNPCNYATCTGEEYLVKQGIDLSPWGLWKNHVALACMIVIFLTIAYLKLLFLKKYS
Procedure: (§1) For cytotoxicity and accumulation experiments, cells were grown in drug-free medium for at least one week prior to the experiments. Human embryonic kidney cells (HEK293) and their stable transfectants overexpressing the R482, G482 and T482 ABCG2 were grown in the above RPMI-1640 medium supplemented with 2 mg/ml G-418. Bram, E. E., et al., (2006) Cancer Chemother Pharmacol 58(6), 826-834.
(§2) IA derivative and tetramethylrosamine (TMR) accumulation in parental HEK293 and their HEK293/ABCG2 R/G/T482 transfectants were carried out as described herein with the a slight amendment of using a single IA concentration of 1 μM ±FTC (5 μM) for the selected as well as 0.1 μM for TMR accumulation. Robey, R. W., et al., (2003) Br J Cancer 89(10), 1971-1978. Cellular fluorescence was determined using a FACSCalibur (BD Bioscience, San Jose, Calif. USA) flow cytometer. FL1-H excitation of IAs was at 488 nm and emission was collected at 525 nm, whereas FL2-H excitation of TMR was at […] and emission was collected at 574 nm. Flow cytometric results are presented as means±SD of 3 independent experiments.
(§3) Bram, E. E., et al., (2006) Cancer Chemother Pharmacol 58(6), 826-834.

[1] = test system: untransfected HEK293 cells; assay: Flow cytometric accumulation in untransfected HEK293 cells; format: cell-based, Human; conditions: 0.1 μM TMR, ±5 μM FTC
Procedure: as §1, §2, §3

mutant G482 ABCG2 = target: T2, mutant G482 ABCG2 (Homo sapiens, UniProt Q9UNQ0, R482G); assay: Flow cytometric accumulation in HEK293 transfectants, mutant G482 ABCG2; conditions: HEK293 mutant G482 ABCG2, 0.1 μM TMR, ±5 μM FTC
T2 sequence (Q9UNQ0 1-655 R482G): T1 sequence (Q9UNQ0 1-655 R482T) with T482G
Procedure: as §1, §2, §3

wild type R482 ABCG2 = target: T3, wild type R482 ABCG2 (Homo sapiens, UniProt Q9UNQ0); assay: Flow cytometric accumulation in HEK293 transfectants, wild type R482 ABCG2; conditions: HEK293 wild type R482 ABCG2, 0.1 μM TMR, ±5 μM FTC
T3 sequence (Q9UNQ0 1-655): T1 sequence (Q9UNQ0 1-655 R482T) with T482R
Procedure: as §1, §2, §3

For `CN(C)c1ccc2c(-c3ccc(CCl)cc3)c3ccc(=[N+](C)C)cc-3oc2c1` [TMR, tetramethylrosamine], the “AF (FTC inducible accumulation fold)” value (mutant T482 ABCG2) was “marked AF”, the “AF (FTC inducible accumulation fold)” value [1] was 0.8 fold and the “AF (FTC inducible accumulation fold)” value (mutant G482 ABCG2) was “marked AF”. For the same compound, the “AF (FTC inducible accumulation fold)” value (wild type R482 ABCG2) was 1.4.
